Measurements taken from PubChem BioAssay (NCI).
“And” between values parts separate entries of the source, which are not always exact repeats. Identical values can stand only once.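 96-well plates; 48 h exposure; 5 concentrations. Endpoints by linear interpolation between flanking doses. Not reached: highest tested concentration assigned. GI50: concentration for 50% inhibition of growth. The concentration for full growth arrest is given as TGI.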

Key:
Test in all cases: NCI-60 cell line screen, 48 h
[1] = tested on: A549 NSCLC
[2] = tested on: ACHN renal
[3] = tested on: HCT-116 colon
[4] = tested on: HCT-15 colon
[5] = tested on: IGROV1 ovarian
[6] = tested on: MDA-MB-231 breast
[7] = tested on: NCI-H23 lung
[8] = tested on: NCI-H460 lung
[9] = tested on: OVCAR-5 ovarian
[10] = tested on: UO-31 renal

| Compound | GI50 [1] | TGI [1] | GI50 [2] | TGI [2] | GI50 [3] | TGI [3] | GI50 [4] | TGI [4] | GI50 [5] | TGI [5] | GI50 [6] | TGI [6] | GI50 [7] | TGI [7] | GI50 [8] | TGI [8] | GI50 [9] | TGI [9] | GI50 [10] | TGI [10] |
| --- | --- | --- | --- | --- | --- | --- | --- | --- | --- | --- | --- | --- | --- | --- | --- | --- | --- | --- | --- | --- |
| CCCc1n(Cc2ccc3ccccc3n2)cc[n+]1Cc1ccc2ccccc2n1 | 7.73 µM | > 100 µM | 33.4 µM | > 100 µM | 2.81 µM | 13.1 µM | 37.9 µM | > 100 µM | 1.48 µM | 15.1 µM | 2.11 µM | 8.47 µM | 0.819 µM | 14.2 µM | 2.44 µM | 11.5 µM | 3.72 µM | 34.2 µM | 16.5 µM | 73.9 µM |
| N#Cc1ccc(/C=C/C(=O)c2ccccc2)cc1 | 14.8 µM and 15.4 µM | 27.9 µM and 31.8 µM | 12.3 µM and 16.2 µM | 24.8 µM and 29.8 µM | 1.51 µM and 1.72 µM | 3.17 µM | 7.13 µM and 3.28 µM | 18.7 µM and 13.5 µM | 4.18 µM and 2.27 µM | 14.6 µM and 5.58 µM | 15 µM and 15.1 µM | 29.3 µM and 30.1 µM | 10.8 µM and 15.4 µM | 24.3 µM and 33.2 µM | 14.5 µM and 8.35 µM | 28.9 µM and 22.4 µM | 16.6 µM and 14.6 µM | 31.1 µM and 30 µM | 2.8 µM and 11.5 µM | 7.98 µM and 23.9 µM |
| Cc1cc2c(cc1Cl)N1C(=O)NS(=O)(=O)N=C1NS2(=O)=O | > 100 µM | > 100 µM | > 100 µM | > 100 µM | > 100 µM | > 100 µM | > 100 µM | > 100 µM | > 100 µM | > 100 µM | > 100 µM | > 100 µM | > 100 µM | > 100 µM | > 100 µM | > 100 µM | > 100 µM | > 100 µM | > 100 µM | > 100 µM |
| COc1ccc(/C=C2/CN(CCC#N)C/C(=C\c3ccc(OC)cc3)C2=O)cc1 | 2.92 µM | > 100 µM | 2.06 µM | 4.48 µM | 0.829 µM | 2.38 µM | 2.51 µM | 21.8 µM | 2.77 µM | 8.26 µM | 2.71 µM | 15 µM | 3.34 µM | 19.8 µM | 1.97 µM | 4.75 µM | 3.33 µM | 24.9 µM | 1.74 µM | 4.86 µM |
| CCN(CCO)CCCOc1ccc2c(Nc3cc(CC(=O)Nc4cccc(F)c4)[nH]n3)ncnc2c1 | 20.5 µM | > 100 µM | > 100 µM | > 100 µM | 9.63 µM | 34.6 µM and > 10 µM | > 100 µM | > 100 µM | 26.1 µM | > 93.1 µM | 19.2 µM | > 51.5 µM | 17.4 µM | > 53.1 µM | 0.071 µM and 0.0456 µM | 21.3 µM and > 3.81 µM | 42.3 µM | > 100 µM | > 100 µM | > 100 µM |
| CC(=O)C(C=O)C(C)=O.CC(=O)CC(C)=O.CC(=O)CC(C)=O.[Ru] | 33.5 µM | > 100 µM | 21 µM | > 100 µM | 21.8 µM | > 100 µM | 11.7 µM | 93.6 µM | 20.4 µM | 73.3 µM | 15.7 µM | 68.8 µM | 12.1 µM | 44.3 µM | 28.5 µM | > 100 µM | 32.2 µM | > 100 µM | 26.9 µM | > 100 µM |
| CC[C@@]1(O)C(=O)NCc2c1cc1n(c2=O)Cc2cc3c(NC(C)=O)cccc3nc2-1 | > 100 µM | > 100 µM | > 100 µM | > 100 µM | > 100 µM | > 100 µM | > 100 µM | > 100 µM | > 100 µM | > 100 µM | > 100 µM | > 100 µM | > 100 µM | > 100 µM | > 100 µM | > 100 µM | > 100 µM | > 100 µM | > 100 µM | > 100 µM |
| O=C1C(Br)=CC2(C=C1Br)CCNc1c(O)c3c4c(c12)=NCCC=4C=N3 | – | 3.09 µM | – | 0.307 µM | – | 0.116 µM | – | 0.197 µM | – | 0.42 µM | – | 0.409 µM | – | 0.287 µM | – | 1.64 µM | – | 1.28 µM | – | 0.685 µM |
| COc1cc(NC(C)CCCN2C(=O)c3ccccc3C2=O)c2ncccc2c1OC (stereo not given) | 33 µM | > 100 µM | 29.9 µM | > 100 µM | 31.2 µM | > 100 µM | 28.4 µM | > 100 µM | 18.6 µM | > 100 µM | 31.8 µM | > 100 µM | 26.3 µM | > 100 µM | 35.5 µM | > 100 µM | 82.6 µM | > 100 µM | 36.7 µM | > 100 µM |
| COc1cc(/C=C/c2ccccn2)cc(OC)c1OC | – | > 10 µM | – | > 10 µM | – | > 10 µM | – | > 10 µM | – | > 10 µM | – | > 10 µM | – | > 10 µM | – | > 10 µM | – | > 10 µM | – | > 10 µM |
| Cc1cn2c(/C=C3/C(=O)Nc4ccc(Cl)cc43)c(C)nc2s1 | 1.05 µM | > 49.1 µM | 0.185 µM | 48.4 µM | < 0.0238 µM | 25.3 µM | < 0.0403 µM | > 92.8 µM | 2.5 µM | 99.4 µM | 0.678 µM | 24.8 µM | 0.0454 µM | 0.37 µM | 1.04 µM | > 59.4 µM | 1.91 µM | > 43.4 µM | 15.6 µM | > 100 µM |
